The target of data set [1] is human sEH (Homo sapiens (Human), UniProt P34913). As to the kind of experiment: Fluorescence-based sEH inhibitor screening assay (PHOME substrate). It counts as biochemical. The note with it: dose-dependent fluorescence assay. The method, then: Fluorescence-based sEH inhibitor screening assay provided a convenient method for screening human epoxide hydrolase inhibitors. The assay utilized (3-phenyl-oxiranyl)-acetic acid cyano-(6-methoxy-naphthalen-2-yl)-methyl ester (PHOME) as substrate. […] The cyanohydrin quickly decomposed into cyanide ion and the highly fluorescent 6-methoxy-2-naphthaldehyde which was analyzed using an excitation wavelength of 330 nm and emission wavelength of 465 nm after a 30-minute reaction time in darkness.
Sequence of human sEH (P34913 whole entry): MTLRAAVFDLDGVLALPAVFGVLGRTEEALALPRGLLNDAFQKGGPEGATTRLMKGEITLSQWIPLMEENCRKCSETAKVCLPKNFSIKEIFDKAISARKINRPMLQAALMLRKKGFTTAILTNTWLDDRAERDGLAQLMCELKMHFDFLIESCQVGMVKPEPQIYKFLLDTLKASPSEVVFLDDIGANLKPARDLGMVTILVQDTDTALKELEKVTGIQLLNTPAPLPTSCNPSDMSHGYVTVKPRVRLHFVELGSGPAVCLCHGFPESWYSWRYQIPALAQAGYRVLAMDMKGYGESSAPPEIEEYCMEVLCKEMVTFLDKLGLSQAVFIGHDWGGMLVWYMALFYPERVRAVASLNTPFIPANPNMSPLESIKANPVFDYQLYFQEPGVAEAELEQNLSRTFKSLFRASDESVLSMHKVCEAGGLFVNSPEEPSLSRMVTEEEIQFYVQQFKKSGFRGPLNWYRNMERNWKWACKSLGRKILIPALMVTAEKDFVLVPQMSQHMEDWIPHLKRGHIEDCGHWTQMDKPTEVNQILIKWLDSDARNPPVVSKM
The background AF was subtracted from the 100% initial activity and inhibitor AFs.

Data set [2] has as its system Plasma protein. In words: Plasma protein binding, human. It is filed as in vitro ADME.
For data set [3], the system named is Plasma protein. In words: Plasma protein binding, mouse. It counts as in vitro ADME.
A short description of data set [4]: Metabolic stability, mouse. It counts as in vitro ADME.
A short description of data set [5]: Metabolic stability, human. It counts as in vitro ADME.
Data set [6] relates to Caco-2. As to the kind of experiment: Caco-2 permeability. It counts as in vitro ADME. On the technique in general: Caco-2 monolayers are a common model of the intestinal barrier.
A short description of data set [7]: Aqueous solubility @ pH 7.4. It is filed as physicochemical.
Data set [8] addresses inducible nitric oxide synthase (iNOS) (Mus musculus (Mouse), UniProt P29477). As to the kind of experiment: iNOS inhibition primary assay. It is filed as biochemical. Particulars: 10 μM of each compound; mouse cell line. How it is done: Biochemical assay results are presented as the percent inhibition of specific binding or activity. The concentration of each compound was 10 μM.

What is called IC50 is the point on the concentration scale where inhibition reaches its midpoint. A higher IC50 goes with a need for much substance.

Take `O=C(NC12CC3CC(CC(C3)C1)C2)NS(=O)(=O)c1ccccc1` [Compound 5d, N-(((3s,5s,7s)-adamantan-1-yl)carbamoyl)benzenesulfonamide]: the midpoint of inhibition in data set [1], the IC50, lay at 104 nM. In other words, the sub-micromolar range.

On to `O=C(NC12CC3CC(CC(C3)C1)C2)NS(=O)(=O)c1ccc2ccccc2c1` [Compound 5e], for which the “Plasma protein binding % of stability” value in data set [2] is 99%. Further, in data set [3], the “Plasma protein binding % of bound comp” value is 98% and the “Plasma protein binding % of stability” value is given as 88%. Also, 1.21 nM corresponded to half-maximal inhibition in data set [1] (IC50). Besides, in data set [4], the “Metabolic stability Half life” value was found to be 2.2 min and the “Metabolic stability % remaining after 1 h” value was found to be 0%. Besides, in data set [5], the “Metabolic stability Half life” value was determined as 33.4 min and the “Metabolic stability % remaining after 1 h” value is listed as 45%.

For `O=C(NC12CC3CC(CC(C3)C1)C2)NS(=O)(=O)c1ccc(OC(F)(F)F)cc1` [Compound 5i, N-(((3s,5s,7s)-adamantan-1-yl)carbamoyl)-4-(trifluoromethoxy)benzenesulfonamide], the “Plasma protein binding % of stability” value in data set [2] is reported as 99%. Also, the “Plasma protein binding % of bound comp” value in data set [3] was 98%. The Efflux ratio in data set [6] (Caco-2) stood at 0.8. Also, the “Caco-2 permeability Aical to Basal (Papp)” value in data set [6] (apical to basal) is 14.9 cm/sec (10^−6). Moreover, the “Caco-2 permeability Basal to Apical (Papp)” value in data set [6] (basal to apical) is given as 12.6 cm/sec (10^−6). The compound also displayed an IC50 in data set [1] of 1.69 nM. The “Aqueous Solubility @ pH 7.4” value in data set [7] came out at 53 μg/mL. In data set [4], the “Metabolic stability Half life” value is listed as 4.9 min and the “Metabolic stability % remaining after 1 h” value stood at 0%. In data set [5], the “Metabolic stability Half life” value turned out to be 106.3 min and the “Metabolic stability % remaining after 1 h” value is listed as 80%.

In data set [1], `C/C(N)=N\C(=N\S(=O)(=O)c1ccc(OC(F)(F)F)cc1)NC12CC3CC(CC(C3)C1)C2` [Compound 7i] returned an IC50 of 9.89 nM.

`CSC(=N)NC(=NS(=O)(=O)c1ccc(C(C)(C)C)cc1)NC12CC3CC(CC(C3)C1)C2` [Compound 8b, methyl N—N′-((3s,5s,7s)-adamantan-1-yl)-N′-((4-(tert-butyl)phenyl)sulfonyl)carbamimidoyl)carbamimidothioate]: the “% iNOS inhibition” value in data set [8] came out at 52%.

In data set [1], `CS/C(N)=N/C(=NS(=O)(=O)c1ccc(OC(F)(F)F)cc1)NC12CC3CC(CC(C3)C1)C2` [Compound 8i] showed a half-inhibitory concentration (IC50) of 1.02 nM.

In the case of `C[Se]C(=N)NC(=NS(=O)(=O)c1ccc(C(C)(C)C)cc1)NC12CC3CC(CC(C3)C1)C2` [Compound 9b, methyl N—N′-((3s,5s,7s)-adamantan-1-yl)-N′-((4-(tert-butyl)phenyl)sulfonyl)carbamimidoyl)carbamimidoselenoate], in data set [8], the “% iNOS inhibition” value was 95%.

For the compound `COc1ccc(S(=O)(=O)/N=C(\N=C(/N)[Se]C)NC23CC4CC(CC(C4)C2)C3)cc1` [Compound 9c], in data set [8], the “% iNOS inhibition” value is 94%.

In the case of `C[Se]C(=N)NC(=NS(=O)(=O)c1ccc(C#N)cc1)NC12CC3CC(CC(C3)C1)C2` [Compound 9h, methyl N—N′-((3s,5s,7s)-adamantan-1-yl)-N′-((4-cyanophenyl)-sulfonyl)carbamimidoyl)carbamimidoselenoate], the “% iNOS inhibition” value in data set [8] is given as 93%.

In the case of `C[Se]/C(N)=N/C(=NS(=O)(=O)c1ccc(OC(F)(F)F)cc1)NC12CC3CC(CC(C3)C1)C2` [Compound 9i], the “% iNOS inhibition” value in data set [8] is 87%. In data set [1], this compound came in with an IC50 of 3.84 nM.

Take `C[Se]C(=N)NC(=NS(=O)(=O)c1ccc(C(F)(F)F)cc1)NC12CC3CC(CC(C3)C1)C2` [Compound 9j, methyl N—N′-((3s,5s,7s)-adamantan-1-yl)-N′-((4-(trifluoromethyl)phenyl)sulfonyl)carbamimidoyl)carbamimidoselenoate]: the “% iNOS inhibition” value in data set [8] came to 90%.

With `O=S(=O)(NC(=S)NC12CC3CC(CC(C3)C1)C2)c1ccccc1` [Compound 11c, N-(((3s,5s,7s)-adamantan-1-yl)carbamothioyl)benzenesulfonamide], the IC50 in data set [1] worked out at 131 nM. This counts as sub-micromolar.

In data set [1], `O=S(=O)(NC(=S)NC12CC3CC(CC(C3)C1)C2)c1ccc(OC(F)(F)F)cc1` [Compound 11d, N-(((3s,5s,7s)-adamantan-1-yl)carbamothioyl)-4-(trifluoromethoxy)benzenesulfonamide] yielded an IC50 of 4.66 nM.

Regarding `NN/C(=N/S(=O)(=O)c1ccc(OC(F)(F)F)cc1)NC12CC3CC(CC(C3)C1)C2` [Compound 13i], in data set [1], the IC50 was found to be 154 nM.

The values above are taken from patent publication US20250049736A1, “SULFONAMIDE DERIVATIVES AND THEIR USE AS SOLUBLE EPOXIDE HYDROLASE INHIBITORS” (THE UNITED STATES OF AMERICA, AS REPRESENTED BY THE …, priority 2021, published 2025).
